# Test results as given in publication PMC6804229, “Cytotoxic Xanthones from Hypericum stellatum, an Ethnomedicine in Southwest China” (Molecules, 2019).
# Like-named read-outs stand apart in the source and are kept apart here.
# Tests used:
# SK-HEP-1 [1] = experiment: MTS cytotoxicity assay, SK-HEP-1
# Protocol: (§1) The isolated compounds were tested in vitro for their cytotoxicity to five human liver carcinoma cell lines (SMMC-7721, Huh-7, HepG2, SK-HEP-1, PLC/PRF/5) and the immortalized noncancerous human liver cell (LO2), in a 3-(4,5-dimethylthiazol-2-yl)-5(3-carboxymethoxyphenyl)2-(4-sulfopheny)-2H-tetrazolium (MTS; Promega, Beijing, China) assay [31]. In general, cells in the log phase of their cycle were seeded in 96-well plates (4000–5000 cells/well, NEST Biotechnology, Wuxi, China) in a 100-μL volume. After 12 h of incubation at 37 °C, each test compound was added. The cancer cell lines were exposed to the test compounds at five concentrations (0.064, 0.32, 1.6, 8, and 40 μM) in triplicate with cisplatin (Meilunbio, CAS No. 15663-27-1) and Taxol (Meilunbio, CAS No. 33069-62-4) as the positive control. After incubation for 48 h at 37 °C, 20 μL of MTS solution and 100 μL DMEM were added into the well. The incubation continued for another 1–4 h.
# LO2 [2] = experiment: cells; details: Homo sapiens, L02, 48 h, read-out: IC50 ± SD
# Source text: (§2) Considering its purported medicinal value for the treatment of liver disease, we tested the cytotoxic activities of ten xanthones isolated from H. stellatum against five human liver carcinoma cell lines (SMMC-7721, Huh-7, HepG2, SK-HEP-1, PLC/PRF/5), as well as the immortalized non-cancerous human liver cell (LO2) by the MTS method, in vitro, with cisplatin (CAS No. 15663-27-1, Meilunbio, Dalian, China) and Taxol (CAS No. 33069-62-4, Meilunbio, Dalian, China) as positive controls.
# as §1
# SMMC-7721 [3] = experiment: MTS cytotoxicity assay, SMMC-7721
# Protocol: as §1
# HepG2 [4] = experiment: MTS cytotoxicity assay, HepG2
# Protocol: as §1
# Huh-7 [5] = experiment: MTS cytotoxicity assay, Huh-7
# Protocol: as §1
# [6] = system: five human liver carcinoma cell lines; experiment: cells; assay type: cell-based
# Protocol: The incubation continued for another 1–4 h.
# PLC/PRF/5 [7] = experiment: MTS cytotoxicity assay, PLC/PRF/5
# Protocol: as §1
# LO2 [8] = system: LO2
# Source text: as §2, §1
# SMMC-7721 [9] = system: SMMC-7721
# Protocol: as §1
# Huh-7 [10] = system: Huh-7
# Protocol: as §1
# SK-HEP-1 [11] = system: SK-HEP-1
# Protocol: as §1
# PLC/PRF/5 [12] = system: PLC/PRF/5
# Protocol: as §1
# PKC = system: PKC; design: method as in PMID 26245668; details: synthesized isojacareubin; cited from earlier work
# HepG2 [13] = system: HepG2
# Protocol: as §1
# [14] = Homo sapiens, SK-HEP1, 48 h, read-out: IC50 ± SD
# [15] = Homo sapiens, SMMC-7721, 48 h, read-out: IC50 ± SD
# [16] = Homo sapiens, HepG2, 48 h, read-out: IC50 ± SD
# [17] = Homo sapiens, HepG2, read-out: cytotoxic activity (class)
# [18] = Homo sapiens, Huh-7, 48 h, read-out: IC50 ± SD
# [19] = Homo sapiens, Huh-7, read-out: cytotoxic activity (class)
# [20] = Homo sapiens, PLC-PRF-5, 48 h, read-out: IC50 ± SD
# [21] = Homo sapiens, PLC-PRF-5, read-out: cytotoxic activity (class)
# [22] = read-out: IC50 ± SD, SK-HEP-1, MTS, 48 h, mean of three independent experiments
# [23] = read-out: IC50 ± SD, SMMC-7721, MTS, 48 h, mean of three independent experiments
# [24] = read-out: IC50 ± SD, HepG2, MTS, 48 h, mean of three independent experiments
# [25] = read-out: IC50 ± SD, Huh-7, MTS, 48 h, mean of three independent experiments
# [26] = range over five human liver carcinoma cell lines, read-out: IC50 value range
# [27] = read-out: IC50 ± SD, PLC/PRF/5, MTS, 48 h, mean of three independent experiments
# [28] = read-out: IC50 ± SD, LO2 human normal liver cell line, MTS, 48 h, mean of three independent experiments
# [29] = Homo sapiens, SK-HEP1, read-out: cytotoxic activity (class)
# [30] = Homo sapiens, SMMC-7721, read-out: cytotoxic activity (class)
Molecule,IC50 (SK-HEP-1 [1]; [14]),IC50 (LO2 [2]),IC50 (SMMC-7721 [3]; [15]),IC50 (HepG2 [4]; [16]),IC50 (HepG2 [4]; [17]),IC50 (Huh-7 [5]; [18]),IC50 (PLC/PRF/5 [7]; [20]),also measured
"C=C(C)[C@@H]1Cc2c(cc(O)c3c(=O)c4ccc(O)c(O)c4oc23)OC1C=C(C)C (some centres unmarked) [Compound 9, Hypxanthone B]",> 40 µM,> 40 µM,8.26 ± 0.57 µM,11.93 ± 0.1 µM,10 to 40 µM,25.8 ± 2.04 µM,30.8 ± 0.38 µM,"IC50 (Huh-7 [5]; [19]): 10 to 40 µM; IC50 ([6]; Homo sapiens, read-out: cytotoxicity (class)): 10 to 40 µM; IC50 (PLC/PRF/5 [7]; [21]): 10 to 40 µM"
"COc1cc2oc3ccccc3c(=O)c2cc1O [Compound 1, 2-hydroxy-3-methoxyxanthone]",> 40 µM,14.5 ± 0.95 µM,> 40 µM,10.2 ± 0.12 µM,10 to 40 µM,> 40 µM,> 40 µM,
"O=c1c2cc(O)ccc2oc2cc(O)cc(O)c12 [Compound 4, 1,3,7-trihydroxyxanthone]",> 40 µM,> 40 µM,> 40 µM,22.6 ± 1.43 µM,10 to 40 µM,> 40 µM,> 40 µM,
"CC(=O)O[C@H]1C(=O)[C@@]2(C)[C@H]([C@H](OC(=O)c3ccccc3)[C@]3(O)C[C@H](OC(=O)[C@H](O)[C@@H](NC(=O)c4ccccc4)c4ccccc4)C(C)=C1C3(C)C)[C@]1(OC(C)=O)CO[C@@H]1C[C@@H]2O [Taxol, reference compound]",< 0.01 µM,< 0.01 µM,0.18 ± 0.03 µM,< 0.01 µM,,0.11 ± 0.011 µM,< 0.01 µM,
"COc1cc(O)cc2oc3cc(O)c(O)cc3c(=O)c12 [Compound 5, 3,6,7-trihydroxy-1-methoxyxanthone]",> 40 µM,,> 40 µM,> 40 µM,,> 40 µM,> 40 µM,
"N.N.[Cl][Pt][Cl] [Cisplatin, cisplatin, reference compound]",,,,,,,,"IC50 (SK-HEP-1 [1]; [22]): 20.6 ± 1.03 µM; IC50 (SMMC-7721 [3]; [23]): 4.47 ± 0.27 µM; IC50 (HepG2 [4]; [24]): 10.3 ± 0.5 µM; IC50 (Huh-7 [5]; [25]): 16 ± 0.95 µM; IC50 [6, 26]: 4.47 to 20.6 µM; IC50 (PLC/PRF/5 [7]; [27]): 10.7 ± 0.8 µM; IC50 (LO2 [8]; [28]): 13.9 ± 0.87 µM"
"O=c1c2cc(O)c(O)cc2oc2cc(O)cc(O)c12 [Compound 3, 1,3,6,7-tetrahydroxylxanthone]",> 40 µM,,> 40 µM,> 40 µM,,> 40 µM,> 40 µM,
"C=C(C)C(CC=C(C)C)Cc1c(O)cc(O)c2c(=O)c3ccc(O)c(O)c3oc12 (centres unmarked) [Compound 10, calycinoxanthon D]",31.1 ± 2.67 µM,12.2 ± 0.25 µM,6.27 ± 0.16 µM,21.33 ± 0.16 µM,10 to 40 µM,16.6 ± 0.24 µM,24.9 ± 0.46 µM,IC50 (SK-HEP-1 [1]; [29]): 10 to 40 µM; IC50 (Huh-7 [5]; [19]): 10 to 40 µM; IC50 (PLC/PRF/5 [7]; [21]): 10 to 40 µM
isojacareubin [Compound 6],,,,,,,,"IC50 (SMMC-7721 [9]): < 10 µM; IC50 (SK-HEP-1 [1]; [22]): 9.2 ± 0.21 µM; IC50 (Huh-7 [10]): < 10 µM; IC50 (SMMC-7721 [3]; [23]): 1.41 ± 0.03 µM; IC50 (HepG2 [4]; [24]): 2.4 ± 0.02 µM; IC50 (Huh-7 [5]; [25]): 9.09 ± 0.38 µM; IC50 (SK-HEP-1 [11]): < 10 µM; IC50 (PLC/PRF/5 [12]): 10 to 40 µM; inhibition of PKC (PKC): potent inhibitor; IC50 [6, 26]: 1.41 to 11.8 µM; IC50 (PLC/PRF/5 [7]; [27]): 11.8 ± 0.56 µM; IC50 (HepG2 [13]): < 10 µM; IC50 (LO2 [8]): < 10 µM; IC50 (LO2 [8]; [28]): 2.03 ± 0.04 µM"
"COc1cc2oc3cc(O)cc(O)c3c(=O)c2cc1O [Compound 7, 1,3,7-trihydroxy-6-methoxyxanthone]",37.1 ± 0.97 µM,12.1 ± 0.14 µM,28.2 ± 0.89 µM,> 40 µM,,> 40 µM,> 40 µM,IC50 (SK-HEP-1 [1]; [29]): 10 to 40 µM; IC50 (SMMC-7721 [3]; [30]): 10 to 40 µM
"O=c1c2c(O)cccc2oc2cc(O)cc(O)c12 [Compound 2, 1,3,8-trihydroxyxanthone]",> 40 µM,> 40 µM,15.2 ± 0.27 µM,> 40 µM,,> 40 µM,> 40 µM,IC50 (SMMC-7721 [3]; [30]): 10 to 40 µM
